From US7429564B2, “Oral insulin therapy” (Emisphere Technologies, Inc., priority 2002, dated 2008)
Where two headings read alike, the source gives them in different places.

Experiment: Example 5: 4-CNAB plasma pharmacokinetics, single oral doses, healthy male volunteers
Type: in vivo, human
Details: for Tmax / AUC(0-inf) / AUC(0-t) / Cmax / MRT inf / Vd/F / half-life / MRT / MRT last: male, human, plasma; for Tmax / AUC(0-inf) / AUC(0-t) / Cmax / MRT inf / Vd/F / half-life / MRT: po; for MRT inf: read-out: 4-CNAB MRT(0-inf); for half-life: read-out: 4-CNAB t1/2 (converted); for MRT: read-out: 4-CNAB MRT(0-f); for MRT last: read-out: 4-CNAB MRT(0-t)
Experimental: A single center, double-blind, randomized placebo-controlled study undertaken in healthy human subjects in order to assess the safety and tolerability of escalating single oral doses of 4-CNAB capsules and insulin/4-CNAB capsules.
Within each treatment period in each group, eight subjects were planned to receive active treatment and two subjects to receive placebo. In Group 1, there were four escalating single doses of 4-CNAB (400, 800, 1400 and 2000 mg) and each subject received either all four of these escalating doses or three escalating single doses and one dose of placebo. […] In Group 3 there were three escalating oral doses of Insulin/4-CNAB (100 Units/300 mg, 100 Units/450 mg and 150 Units/100 mg) and one SC dose of 150 Units of insulin. Each subject received either all four of these treatments or three of these treatments and one placebo treatment. For all groups, there was a washout period of at least 72 hours between treatment periods.
The concentration of 4-CNAB in plasma was determined using a combination of liquid chromatography and Mass spectrometry assay known as LC-MS/MS. The method involves protein precipitation followed by separation on liquid chromatography using a Hypersil BDS column and a mobile phase consisting of methanol and acetate buffer. The eluting peaks were quantified by MS/MS. The equipment used for the determination of 4-CNAB in plasma comprises of an Agilent 1100 modular HPLC system with a Micromass Quattro Micro MS/MS detector. HPLC and AR grade chemicals and reagents were used throughout the study.
On the basis of plasma concentrations of 4-CNAB and insulin, PK analysis was performed using non-compartmental PK methods as implemented in WinNonlin™ Professional version 3.2. The profiles for insulin and C-peptide corrected insulin were evaluated up to 6 hours as food was given 6 hours following insulin treatment. The following parameters were derived for 4-CNAB: Cmax, tmax, AUC(0-t), AUC(0-inf), AUC% Extrap, Kel, t1/2, CL/F, Vd/F, MRT(0-t), MRT(0-inf) and Frel. The following parameters were derived for insulin and C-peptide corrected insulin: Cmax, tmax, AUC(0-2), AUC(0-6), AUC(0-t) and concentrations (C^b) and corresponding time (t^b) immediately prior to intervention for hypoglycemia.

[1] = 2000 mg, 4-CNAB alone 2000 mg oral
[2] = with insulin, 100 Units/300 mg oral
[3] = with insulin, 100 Units/450 mg oral
[4] = with insulin, 100 Units/600 mg oral
[5] = with insulin, 150 Units/100 mg oral
[6] = with insulin, 150 Units/200 mg oral

## O=C(O)CCCNC(=O)c1ccc(Cl)cc1O [4-CNAB, 4-[(4-chloro, 2-hydroxybenzoyl)amino]butanoic acid]
1400 mg, 4-CNAB alone 1400 mg oral, read-out: 4-CNAB tmax, median (range)
  Tmax: 45 min
[1]
  AUC(0-inf): 192000 ± 37100 ng·h/mL
  AUC(0-t): 204000 ± 103000 ng·h/mL
  Cmax: 135000 ± 86600 ng/mL
  MRT inf: 7.45 ± 2.36 h
  half-life: 918 ± 414 min
2000 mg, 4-CNAB alone 2000 mg oral, read-out: 4-CNAB Vd/F
  Vd/F: 245 ± 131 L
2000 mg, 4-CNAB alone 2000 mg oral, read-out: 4-CNAB tmax, median (range)
  Tmax: 45 min
[2]
  AUC(0-inf): 9240 ± 5940 ng·h/mL
  AUC(0-t): 8740 ± 5520 ng·h/mL
  Cmax: 8900 ± 6350 ng/mL
  MRT: 1.51 ± 0.16 h
  MRT inf: 2.43 ± 0.82 h
  half-life: 318 ± 198 min
  4-CNAB Cl/F: 834 ± 527 mL/min
  4-CNAB Kel: 0.19 ± 0.12 h⁻¹
With insulin, 100 Units/300 mg oral, read-out: 4-CNAB Vz/F
  Vd/F: 324 ± 239 L
With insulin, 100 Units/300 mg oral, read-out: 4-CNAB tmax, median
  Tmax: 30 min
[3]
  AUC(0-inf): 26800 ± 4560 ng·h/mL
  AUC(0-t): 26000 ± 4410 ng·h/mL
  Cmax: 23200 ± 7930 ng/mL
  MRT: 1.79 ± 0.5 h
  MRT inf: 2.3 ± 0.46 h
  half-life: 246 ± 72 min
  4-CNAB Cl/F: 287 ± 49 mL/min
  4-CNAB Kel: 0.185 ± 0.06 h⁻¹
With insulin, 100 Units/450 mg oral, read-out: 4-CNAB Vz/F
  Vd/F: 101 ± 35 L
With insulin, 100 Units/450 mg oral, read-out: 4-CNAB tmax, median
  Tmax: 30 min
[4]
  AUC(0-inf): 37600 ± 5430 ng·h/mL
  AUC(0-t): 36600 ± 5760 ng·h/mL
  Cmax: 35800 ± 12300 ng/mL
  MRT: 1.45 ± 0.17 h
  MRT inf: 1.9 ± 0.58 h
  half-life: 246 ± 72 min
  4-CNAB Cl/F: 271 ± 38 mL/min
  4-CNAB Kel: 0.19 ± 0.06 h⁻¹
With insulin, 100 Units/600 mg oral, read-out: 4-CNAB Vz/F
  Vd/F: 96 ± 35 L
With insulin, 100 Units/600 mg oral, read-out: 4-CNAB tmax, median
  Tmax: 30 min
[5]
  AUC(0-inf): 4920 ± 1100 ng·h/mL
  AUC(0-t): 4680 ± 1080 ng·h/mL
  Cmax: 6200 ± 3600 ng/mL
  MRT: 1.42 ± 0.56 h
  MRT inf: 2.39 ± 1.39 h
  half-life: 288 ± 204 min
  4-CNAB Cl/F: 352 ± 68 mL/min
  4-CNAB Kel: 0.22 ± 0.14 h⁻¹
With insulin, 150 Units/100 mg oral, read-out: 4-CNAB Vz/F
  Vd/F: 148 ± 102 L
With insulin, 150 Units/100 mg oral, read-out: 4-CNAB tmax, median
  Tmax: 30 min
[6]
  AUC(0-inf): 10300 ± 2080 ng·h/mL
  AUC(0-t): 10000 ± 1890 ng·h/mL
  Cmax: 10100 ± 5090 ng/mL
  MRT: 1.59 ± 0.23 h
  MRT inf: 1.97 ± 0.39 h
  half-life: 192 ± 84 min
  4-CNAB Cl/F: 338 ± 75 mL/min
  4-CNAB Kel: 0.25 ± 0.09 h⁻¹
With insulin, 150 Units/200 mg oral, read-out: 4-CNAB Vz/F
  Vd/F: 89 ± 35 L
With insulin, 150 Units/200 mg oral, read-out: 4-CNAB tmax, median
  Tmax: 30 min
4-CNAB alone 400 mg oral
  MRT last: 1.6 ± 0.23 h
4-CNAB alone 800 mg oral
  MRT last: 1.75 ± 0.22 h
4-CNAB alone 1400 mg oral
  MRT last: 1.6 ± 0.2 h
4-CNAB alone 2000 mg oral
  MRT last: 1.73 ± 0.31 h
